Results from patent publication US12077503B2, “Substituted cyclic amides and their use as herbicides” (FMC CORPORATION, priority 2015, dated 2024).

Key:
Format in all cases: in vivo
[1] = tested on: sedge, umbrella (small-flower umbrella sedge, Cyperus difformis); assay: Test C flooded paddy test; conditions: Flood, 0 is no effect, 100 is complete control
In short: (§1)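 Compound was added directly to paddy water held 3 cm above the soil, with plants at the 2-leaf stage. Injury was scored visually versus untreated controls after 13–15 d greenhouse growth, using a 0–100 scale where 100 means complete control.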

[2] = tested on: barnyardgrass (Echinochloa crus-galli); assay: Test C flooded paddy test; conditions: Flood, 0 is no effect, 100 is complete control
In short: as §1

rice (Oryza sativa) = assay: Test C flooded paddy test; conditions: Flood, 0 is no effect, 100 is complete control
In short: as §1

[3] = tested on: ducksalad (Heteranthera limosa); assay: Test C flooded paddy test; conditions: Flood, 0 is no effect, 100 is complete control
In short: as §1

[4] = tested on: barnyardgrass (Echinochloa crus-galli); assay: Test A postemergence
In short: (§2)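 Preemergence soil spray on seeded pots or post-emergence spray on 1–2 leaf plants, in loam–sand blend. Greenhouse ~10 d. Visual rating 0–100 against untreated plants.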

[5] = tested on: giant foxtail (Setaria faberii); assay: Test A postemergence
In short: as §2

[6] = tested on: morningglory (Ipomoea spp.); assay: Test A postemergence
In short: as §2

[7] = tested on: velvetleaf (Abutilon theophrasti); assay: Test A postemergence
In short: as §2

[8] = tested on: pigweed (Amaranthus retroflexus); assay: Test A postemergence
In short: as §2

corn (Zea mays) [9] = assay: Test A postemergence
In short: as §2

[10] = tested on: wheat (Triticum aestivum); assay: Test A postemergence
In short: as §2

[11] = tested on: crabgrass, large (Digitaria sanguinalis); assay: Test A postemergence
In short: as §2

[12] = tested on: barnyardgrass (Echinochloa crus-galli); assay: Test A preemergence; conditions: for Plant response rating, Barnyardgrass: 125 g ai/ha, preemergence, 0 to 100 scale (0 no effect, 100 complete control); for Barnyardgrass plant response rating (0 to 100 scale): Preemergence, 500 g ai/ha, 0 is no effect, 100 is complete control
In short: as §2

[13] = tested on: giant foxtail (Setaria faberii); assay: Test A preemergence; conditions: for Plant response rating, Foxtail, Giant: 125 g ai/ha, preemergence, 0 to 100 scale (0 no effect, 100 complete control); for Foxtail, Giant plant response rating (0 to 100 scale): Preemergence, 500 g ai/ha, 0 is no effect, 100 is complete control
In short: as §2

[14] = tested on: morningglory (Ipomoea spp.); assay: Test A preemergence; conditions: for Plant response rating, Morningglory: 125 g ai/ha, preemergence, 0 to 100 scale (0 no effect, 100 complete control); for Morningglory plant response rating (0 to 100 scale): Preemergence, 500 g ai/ha, 0 is no effect, 100 is complete control
In short: as §2

[15] = tested on: velvetleaf (Abutilon theophrasti); assay: Test A preemergence; conditions: for Plant response rating, Velvetleaf: 125 g ai/ha, preemergence, 0 to 100 scale (0 no effect, 100 complete control); for Velvetleaf plant response rating (0 to 100 scale): Preemergence, 500 g ai/ha, 0 is no effect, 100 is complete control
In short: as §2

[16] = tested on: pigweed (Amaranthus retroflexus); assay: Test A preemergence; conditions: for Plant response rating, Pigweed: 125 g ai/ha, preemergence, 0 to 100 scale (0 no effect, 100 complete control); for Pigweed plant response rating (0 to 100 scale): Preemergence, 500 g ai/ha, 0 is no effect, 100 is complete control
corn (Zea mays) [17] = assay: Test A preemergence; conditions: for Plant response rating, Corn: 125 g ai/ha, preemergence, 0 to 100 scale (0 no effect, 100 complete control); for Corn plant response rating (0 to 100 scale): Preemergence, 500 g ai/ha, 0 is no effect, 100 is complete control
In short: as §2

[18] = tested on: wheat (Triticum aestivum); assay: Test A preemergence; conditions: for Plant response rating, Wheat: 125 g ai/ha, preemergence, 0 to 100 scale (0 no effect, 100 complete control); for Wheat plant response rating (0 to 100 scale): Preemergence, 500 g ai/ha, 0 is no effect, 100 is complete control
In short: as §2

[19] = tested on: crabgrass, large (Digitaria sanguinalis); assay: Test A preemergence; conditions: for Plant response rating, Crabgrass, Large: 125 g ai/ha, preemergence, 0 to 100 scale (0 no effect, 100 complete control); for Crabgrass, Large plant response rating (0 to 100 scale): Preemergence, 500 g ai/ha, 0 is no effect, 100 is complete control
In short: as §2

[20] = tested on: sedge, umbrella (small-flower umbrella sedge, Cyperus difformis); assay: Test B flooded paddy test; conditions: Flood, 250 g ai/ha; 0 to 100 scale where 0 is no effect and 100 is complete control; 13 to 15 d
In short: (§3)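 Response scored visually against untreated controls, 0 = no effect and 100 = complete control, 13–15 d after treatment in the greenhouse. Compounds added to paddy water held 3 cm above soil surface. Treatment given at 2-leaf stage.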

[21] = tested on: barnyardgrass (Echinochloa crus-galli); assay: Test B flooded paddy test; conditions: Flood, 250 g ai/ha; 0 to 100 scale where 0 is no effect and 100 is complete control; 13 to 15 d
In short: as §3

[22] = tested on: ducksalad (Heteranthera limosa); assay: Test B flooded paddy test; conditions: Flood, 250 g ai/ha; 0 to 100 scale where 0 is no effect and 100 is complete control; 13 to 15 d
In short: as §3

rice (Oryra sativa) = assay: Test B flooded paddy test; conditions: Flood, 250 g ai/ha; 0 to 100 scale where 0 is no effect and 100 is complete control; 13 to 15 d
In short: as §3

[23] = 500 g ai/ha, postemergence, 0 to 100 scale, 0 no effect, 100 complete control
[24] = Postemergence, 125 g ai/ha, visual injury, 0 to 100 scale (0 no effect, 100 complete control), approx. 10 d

O=C1NCC(c2ccoc2)C1C(=O)Nc1ccccc1C(F)(F)F (racemic) [Compound 364]
Plant response rating (scale of 0 to 100), Sedge, Umbrella ([1]; 31 g ai/ha): 0 | Plant response rating (scale of 0 to 100), Sedge, Umbrella ([1]; 62 g ai/ha): 0 | Plant response rating (scale of 0 to 100), Sedge, Umbrella ([1]; 125 g ai/ha): 0 | Plant response rating (scale of 0 to 100), Sedge, Umbrella ([1]; 250 g ai/ha): 0 | Plant response rating (scale of 0 to 100), Barnyardgrass ([2]; 31 g ai/ha): 0 | Plant response rating (scale of 0 to 100), Barnyardgrass ([2]; 62 g ai/ha): 0 | Plant response rating (scale of 0 to 100), Barnyardgrass ([2]; 125 g ai/ha): 0 | Plant response rating (scale of 0 to 100), Barnyardgrass ([2]; 250 g ai/ha): 0 | Plant response rating (scale of 0 to 100), Rice (rice (Oryza sativa); 31 g ai/ha): 0 | Plant response rating (scale of 0 to 100), Rice (rice (Oryza sativa); 62 g ai/ha): 0 | Plant response rating (scale of 0 to 100), Rice (rice (Oryza sativa); 125 g ai/ha): 0 | Plant response rating (scale of 0 to 100), Rice (rice (Oryza sativa); 250 g ai/ha): 0 | Plant response rating (scale of 0 to 100), Ducksalad ([3]; 31 g ai/ha): 0 | Plant response rating (scale of 0 to 100), Ducksalad ([3]; 62 g ai/ha): 0 | Plant response rating (scale of 0 to 100), Ducksalad ([3]; 125 g ai/ha): 0 | Plant response rating (scale of 0 to 100), Ducksalad ([3]; 250 g ai/ha): 0 | Plant response rating, Barnyardgrass [4, 23]: 0 | Plant response rating, Barnyardgrass [4, 24]: 0 | Plant response rating, Foxtail, Giant [5, 23]: 0 | Plant response rating, Foxtail, Giant [5, 24]: 0 | Plant response rating, Morningglory [6, 23]: 0 | Plant response rating, Morningglory [6, 24]: 0 | Plant response rating, Velvetleaf [7, 23]: 0 | Plant response rating, Pigweed [8, 23]: 0 | Plant response rating, Pigweed [8, 24]: 0 | Plant response rating, Corn (corn (Zea mays) [9]; [23]): 0 | Plant response rating, Corn (corn (Zea mays) [9]; [24]): 0 | Plant response rating, Wheat [10, 23]: 0 | Plant response rating, Wheat [10, 24]: 0 | Plant response rating, Crabgrass, Large [11, 23]: 0 | Plant response rating, Crabgrass, Large [11, 24]: 0 | Plant response rating, Barnyardgrass [12]: 0 | Barnyardgrass plant response rating (0 to 100 scale) [12]: 0 | Plant response rating, Foxtail, Giant [13]: 0 | Foxtail, Giant plant response rating (0 to 100 scale) [13]: 0 | Plant response rating, Morningglory [14]: 0 | Morningglory plant response rating (0 to 100 scale) [14]: 0 | Plant response rating, Velvetleaf [15]: 0 | Velvetleaf plant response rating (0 to 100 scale) [15]: 0 | Plant response rating, Pigweed [16]: 0 | Pigweed plant response rating (0 to 100 scale) [16]: 0 | Plant response rating, Corn (corn (Zea mays) [17]): 0 | Corn plant response rating (0 to 100 scale) (corn (Zea mays) [17]): 0 | Plant response rating, Wheat [18]: 0 | Wheat plant response rating (0 to 100 scale) [18]: 0 | Plant response rating, Crabgrass, Large [19]: 0 | Crabgrass, Large plant response rating (0 to 100 scale) [19]: 0

Nc1cccc(C2CNC(=O)C2C(=O)Nc2cccc(F)c2F)c1 (centres unmarked) [Compound 354]
Plant response rating, Barnyardgrass [4, 23]: 0 | Plant response rating, Barnyardgrass [4, 24]: 0 | Plant response rating, Foxtail, Giant [5, 23]: 0 | Plant response rating, Foxtail, Giant [5, 24]: 0 | Plant response rating, Morningglory [6, 23]: 0 | Plant response rating, Morningglory [6, 24]: 0 | Plant response rating, Velvetleaf [7, 23]: 0 | Plant response rating, Velvetleaf [7, 24]: 0 | Plant response rating, Pigweed [8, 23]: 0 | Plant response rating, Pigweed [8, 24]: 0 | Plant response rating, Corn (corn (Zea mays) [9]; [23]): 0 | Plant response rating, Corn (corn (Zea mays) [9]; [24]): 0 | Plant response rating, Wheat [10, 23]: 0 | Plant response rating, Wheat [10, 24]: 0 | Plant response rating, Crabgrass, Large [11, 23]: 0 | Plant response rating, Crabgrass, Large [11, 24]: 0 | Plant response rating, Sedge, Umbrella [20]: 20 | Plant response rating, Barnyardgrass [21]: 0 | Plant response rating, Ducksalad [22]: 0 | Plant response rating, Rice (rice (Oryra sativa)): 20 | Plant response rating, Barnyardgrass [12]: 0 | Barnyardgrass plant response rating (0 to 100 scale) [12]: 0 | Plant response rating, Foxtail, Giant [13]: 0 | Foxtail, Giant plant response rating (0 to 100 scale) [13]: 0 | Plant response rating, Morningglory [14]: 0 | Morningglory plant response rating (0 to 100 scale) [14]: 0 | Plant response rating, Velvetleaf [15]: 0 | Velvetleaf plant response rating (0 to 100 scale) [15]: 0 | Plant response rating, Pigweed [16]: 0 | Pigweed plant response rating (0 to 100 scale) [16]: 0 | Plant response rating, Corn (corn (Zea mays) [17]): 0 | Corn plant response rating (0 to 100 scale) (corn (Zea mays) [17]): 0 | Plant response rating, Wheat [18]: 0 | Wheat plant response rating (0 to 100 scale) [18]: 0 | Plant response rating, Crabgrass, Large [19]: 0 | Crabgrass, Large plant response rating (0 to 100 scale) [19]: 0
